# Laboratory results as given in patent US7871790B2 (priority 2004, dated 2011).
# Residues, ends and D or L forms follow the SMILES beside them. *: point of attachment. Cbz = O=C(OCc1ccccc1)*; CH2F = FC*
# Key:
# [1] = test system: RAW 264.7 murine macrophage cell line; type: cell-based; details: 24 h
# [2] = target: T1, ICE (caspase-1) (Mus musculus, UniProt P29452)
# T1 sequence (P29452 119-296 limits assumed): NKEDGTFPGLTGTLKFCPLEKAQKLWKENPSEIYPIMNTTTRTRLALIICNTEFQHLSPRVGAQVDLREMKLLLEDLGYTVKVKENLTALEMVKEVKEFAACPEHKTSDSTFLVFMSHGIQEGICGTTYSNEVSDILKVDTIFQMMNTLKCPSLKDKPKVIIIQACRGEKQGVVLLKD
# T1 sequence (P29452 315-402 limits assumed): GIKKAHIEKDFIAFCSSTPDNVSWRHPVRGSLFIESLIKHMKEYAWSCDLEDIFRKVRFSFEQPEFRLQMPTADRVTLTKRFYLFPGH
Compound,Dose needed for induction of IL-1β comparable to that resulting from anthrax LT treatment [1] [EU/ml],Induction of IL-18 [1],Effect on cell viability [2],Blocking of IL-1β production induced by anthrax LT ([2]; 24 hours) [%],Blocking of IL-18 production induced by anthrax LT ([2]; 24 hours) [%]
lipopolysaccharide [LPS],≥ 100,not induced,–,–,–
COC(=O)CC[C@H](NC(=O)[C@H](Cc1c[nH]c2ccccc12)NC(=O)OCc1ccccc1)C(=O)N[C@@H](Cc1cnc[nH]1)C(=O)N[C@@H](CC(=O)OC)C(=O)CF [Z-WEHD-FMK] (Cbz-WE(OMe)HD(OMe)-CH2F),–,–,no observable effect,~70,~70
